Experimental data from patent US7612064B2, “Sulfopyrroles” (Takeda Pharmaceutical Company Limited, priority 2003, dated 2009).
pIC50: −log10 of the molar value.

Tests used:
HeLa = test: MTS proliferation assay; assay type: cell-based, human; conditions: 72 h
Description: (§1) The assay is performed in 96 well tissue culture plates. […] The test compounds are added in 20 μl complete medium containing max 5% DMSO. The final compound concentrations in the assays are 10 μM, 3 μM, 1 μM and 0.3 μM, respectively. The assay plates are incubated for 72 h at culture conditions. The MTS reagent is prepared according to the manufacturer's protocol (Promega G1111). 20 μl MTS reagent are added to each well, the assay plates are quickly spun and incubated for another 3 h at culture conditions. Subsequently, the plates are shortly shacked and absorption measured with a microplate-reader at 492 nm.

Jurkat = test: MTS proliferation assay; assay type: cell-based, human; conditions: 72 h
Description: as §1

MRC5 = test: MTS proliferation assay; assay type: cell-based; conditions: MRC5, 72 h
Description: as §1

[1] = Hoechst 33342 nuclear staining; assay type: cell-based; conditions: 24 h or 48 h incubation; for Hoechst 33342 nuclear staining score, HeLa: HeLa cells; for Hoechst 33342 nuclear staining score, Jurkat: Jurkat cells;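 as to all read-outs here: apoptotic nuclei scored 0 none 1 weak under 50% of cells 2 strong over 50% of cells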
Description: This assay is performed in 96 well tissue culture plates. Appropriate number of cells (adherent cells: 3-5*10^3, suspension cells: 8-10*10^3) are being seeded out in 80 μl complete medium. Adherent cells are incubated for 24 h for proper spreading out before addition of test compounds while suspension cells are immediately treated with test compounds after seeding out. The test compounds are added in 20 μl complete medium containing max 5% DMSO. […] […] The assay plates are then further incubated for 30 min and subsequently analyzed with a standard inverted fluorescence microscope.
The readout allows the determination of the fraction of apoptotic nuclei as well as other morphological criteria specific for apoptosis as a function of the treatment. The following scores are used: 0 relating to no activity, 1 relating to weak activity comprising less than 50% of the cells and score 2 relating to strong activity comprising more than 50% of the cells.

[2] = conc 0.1 (final concentrations in μM)
[3] = conc 0.3 (final concentrations in μM)
[4] = conc 1 (final concentrations in μM)
[5] = conc 3 (final concentrations in μM)
[6] = conc 10 (final concentrations in μM)

| Structure (SMILES) | pIC50 (HeLa) | pIC50 (Jurkat) | pIC50 (MRC5) | Hoechst 33342 nuclear staining score, HeLa [1, 2] | Hoechst 33342 nuclear staining score, HeLa [1, 3] | Hoechst 33342 nuclear staining score, HeLa [1, 4] | Hoechst 33342 nuclear staining score, HeLa [1, 5] | Hoechst 33342 nuclear staining score, Jurkat [1, 2] | Hoechst 33342 nuclear staining score, Jurkat [1, 3] | Hoechst 33342 nuclear staining score, Jurkat [1, 4] | Hoechst 33342 nuclear staining score, Jurkat [1, 5] | Hoechst 33342 nuclear staining score, HeLa [1, 6] | Hoechst 33342 nuclear staining score, Jurkat [1, 6] |
| --- | --- | --- | --- | --- | --- | --- | --- | --- | --- | --- | --- | --- | --- |
| Cc1ccc(S(=O)(=O)n2cc(CNc3ccc(N4CCOCC4)cc3)cc2-c2ccc3c(c2)OCO3)cc1.Cl [Example 14] | < 6.00 | < 6.00 | < 6.00 | 0 | 0 | 0 | 2 (strong activity comprising more than 50% of the cells) | 0 | 0 | 0 | 2 (strong activity comprising more than 50% of the cells) |  |  |
| Cc1ccc(S(=O)(=O)n2cc(-c3ccc(C#N)cc3)cc2-c2ccc3c(c2)OCO3)cc1 [Example 48] | < 6.00 | < 6.00 | < 6.00 | 0 | 0 | 0 | 0 | 0 | 0 | 0 | 0 |  |  |
| Cc1ccc(S(=O)(=O)n2cc(CN(C)C3CCN(Cc4ccccc4)C3)cc2-c2ccc3c(c2)OCO3)cc1 (centres unmarked) [Example 25] | < 6.00 | < 6.00 | < 6.00 | 0 | 0 | 0 | 1 (weak activity comprising less than 50% of the cells) | 0 | 0 | 0 | 0 |  |  |
| CCN1CCN(CCCNCc2cc(-c3ccc4c(c3)OCO4)n(S(=O)(=O)c3ccc(C)cc3)c2)CC1 [Example 29] | < 6.00 | < 6.00 | < 6.00 | 0 | 0 | 0 | 0 | 0 | 0 | 0 | 0 |  |  |
| Cc1ccc(S(=O)(=O)n2cc(CNCCN3CCN(Cc4ccccc4)CC3)cc2-c2ccc3c(c2)OCO3)cc1 [Example 16] | < 6.00 | < 6.00 | < 6.00 | 0 | 0 | 0 | 1 (weak activity comprising less than 50% of the cells) | 0 | 0 | 0 | 0 |  |  |
| Cc1ccc(S(=O)(=O)n2cc(-c3ccc(C(N)=O)cc3)cc2-c2cccs2)cc1 [Example 52] | < 6.00 | < 6.00 | < 6.00 | 0 | 0 | 0 | 0 | 0 | 0 | 0 | 0 |  |  |
| Cc1ccc(S(=O)(=O)n2cc(CNc3ccc(N4CCOCC4)c(Cl)c3)cc2-c2ccc3c(c2)OCO3)cc1 [Example 38] | < 6.00 | < 6.00 | < 6.00 |  | 0 | 0 | 0 |  | 0 | 0 | 0 | 0 | 0 |
